Where a SMILES comes first, the peptide text is derived from it. [ ]: non-standard residue; d: D form. pS = N[C@@H](COP(=O)(O)O)C(=O)O
Assay: Intra-Oral Caries Test (Test 2)
Assay type: in vivo
Conditions: plaque exposed twice a day to the peptide T1 solution
Procedure: The anticariogenicity of phosphopeptide T1 was determined using a modification of the intra-oral caries test of Koulourides and Ostrom (Caries Res. 10:442-482, 1976). Enamel slabs were inset in a removable intra-oral appliance to simulate an approximal area. This was done on both sides of the removable appliance (left and right). The appliance was worn to allow plaque accumulation in the simulated approximal areas. Eight times a day the appliance was removed and placed in a solution at 37° C. The solution was 2% w/v sucrose, 2% w/v glucose, 140 mM KCl, 20 mM NaCl at pH 7.0. Twice a day the right side enamel slabs received exposure to a solution containing 1.8% w/v calcium phosphate T1 in 140 mM KCl, 20 mM NaCl at pH 7.0, while the left side received only the salt solution. At the completion of the experiment the enamel slabs were removed, sectioned and subjected to microradiography and microhardness testing. […] The results were confirmed by microhardness analysis. Plaque was also taken from both sides of the appliance and analysed for calcium phosphate, serine phosphate and peptide T1 using a competitive, quantitative, enzyme-linked immunosorbent assay (ELISA) utilising monoclonal antipeptide T1 antibodies.

level of peptide in plaque (ELISA): at least 0.4 % w/wet wt of plaque
SMILES: CC[C@H](C)[C@H](NC(=O)[C@H](COP(=O)(O)O)NC(=O)[C@H](CCC(=O)O)NC(=O)[C@H](C)NC(=O)[C@H](CCC(=O)O)NC(=O)[C@H](CCSC)NC(=O)[C@@H](N)CCC(=O)O)C(=O)N[C@@H](COP(=O)(O)O)C(=O)N[C@@H](COP(=O)(O)O)C(=O)N[C@@H](COP(=O)(O)O)C(=O)N[C@@H](CCC(=O)O)C(=O)N[C@@H](CCC(=O)O)C(=O)N[C@H](C(=O)N[C@H](C(=O)N1CCC[C@H]1C(=O)N[C@@H](CC(N)=O)C(=O)N[C@@H](COP(=O)(O)O)C(=O)N[C@H](C(=O)N[C@@H](CCC(=O)O)C(=O)N[C@@H](CCC(N)=O)C(=O)N[C@@H](CCCCN)C(=O)O)C(C)C)C(C)C)[C@@H](C)CC [T1, Glu-Met-Glu-Ala-Glu-Pse-Ile-Pse-Pse-Pse-Glu-Glu-Ile-Val-Pro-Asn-Pse-Val-Glu-Gln-Lys] (H-EMEAE[pS]I[pS][pS][pS]EEIVPN[pS]VEQK-OH)
